Measured values from ChEMBL document CHEMBL1144088, “Potential antipsoriatic agents: lapacho compounds as potent inhibitors of HaCaT cell growth” (J Nat Prod, 1999).

How the values were obtained:
HaCaT [1] = assay: Cytotoxicity against human HaCaT cells assessed as LDH release at 2 uM; format: cell-based
HaCaT [2] = assay: Antiproliferative activity against human HaCaT cells; format: cell-based

| Compound | Activity (HaCaT [1]) | IC50 (HaCaT [2]) |
| --- | --- | --- |
| CCc1cc2c(o1)-c1cccc(O)c1C(=O)C2=O | 235 mU | 0.9 µM |
| CC(C)=CCC1=C(O)C(=O)c2ccccc2C1=O [LAPACHOL] |  | > 10 µM |
| CC(=O)c1cc2c(o1)C(=O)c1ccccc1C2=O [NAPABUCASIN] | 331 mU | 0.5 µM |
| CC/C=C/C1=C(O)C(=O)c2c(O)cccc2C1=O |  | > 10 µM |
| CCc1cc2c(o1)C(=O)c1c(O)cccc1C2=O |  | 3 µM |
| C=C(C)C1CC2=C(O1)C(=O)c1ccccc1C2=O (stereo not drawn) [DEHYDROISO-ALPHA-LAPACHONE] |  | 4.3 µM |
| CC(O)c1cc2c(o1)C(=O)c1ccccc1C2=O (configuration not stated) |  | 3.7 µM |
| O=C1C=C(O)c2cccc(O)c2C1=O |  | > 10 µM |
| CC1(C)C=CC2=C(O1)C(=O)c1ccccc1C2=O [DEHYDRO-ALPHA-LAPACHONE] |  | > 10 µM |
| CC1(C)CCC2=C(O1)c1ccccc1C(=O)C2=O [LAPACHONE] | 329 mU | 0.7 µM |
| CC1(C)CCC2=C(O1)C(=O)c1ccccc1C2=O [ALPHA-LAPACHONE] |  | 10 µM |
| O=C1c2c(O)cccc2Cc2cccc(O)c21 [ANTHRALIN] | 294 mU |  |
| CC(=O)c1cc2c(o1)C(=O)c1c(O)cccc1C2=O | 346 mU | 0.3 µM |
